Test results: patent publication US20220370453A1 (Storm Therapeutics Ltd, priority 2019, published 2022)

Key:
BCDIN3D [1] = molecular target: T1, BCDIN3D (Homo sapiens, UniProt Q7Z5W3); experiment: BCDIN3D IC50 RFMS (RapidFire) assay with mini-helix; type: biochemical; conditions: mini-helix substrate 0.2 μM, SAM 6 μM, 25 nM enzyme
T1 sequence (Q7Z5W3 1-292): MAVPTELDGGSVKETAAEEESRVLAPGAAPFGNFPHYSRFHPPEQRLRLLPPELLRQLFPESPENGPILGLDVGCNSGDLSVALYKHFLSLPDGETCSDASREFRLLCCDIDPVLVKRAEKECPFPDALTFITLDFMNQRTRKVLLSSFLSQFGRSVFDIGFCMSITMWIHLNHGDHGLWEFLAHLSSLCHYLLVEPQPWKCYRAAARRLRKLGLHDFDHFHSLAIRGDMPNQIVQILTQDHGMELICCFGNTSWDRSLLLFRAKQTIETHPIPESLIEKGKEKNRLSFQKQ
How it was run: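 25 nM enzyme preincubated 10 min at room temperature with compound (1% DMSO) in 25 mM Tris pH 8.0, 10 mM DTT, 1 mM EDTA, 0.03% BSA. Reaction started with 0.2 μM mini-helix plus 6 μM SAM, run 1 h at 37 °C, quenched with TCA; SAH product quantified by RapidFire MS against isotopic SAH standards.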

BCDIN3D [2] = molecular target: T1, BCDIN3D; experiment: BCDIN3D InCellPulse thermal stability assay in transfected A549 cells; type: cell-based; conditions: transiently transfected A549 cells, heat shock 58° C. 15 min
How it was run: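 A549 cells transiently expressing BCDIN3D N-terminally fused to ePL ProLabel tag, 1500 cells/well, pre-incubated 1 h at 37 °C with compound (0.6% DMSO). Heat shock 58 °C for 15 min; remaining soluble fusion detected by split β-galactosidase complementation luminescence.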

Structure (SMILES) | IC50 (BCDIN3D [1]) [nM] | IC50 (BCDIN3D [2]) [nM]
C#Cc1cccc(C(N)CNc2nc(NC(C)(C)C)c3cnn(C)c3n2)c1 (stereo not drawn) [Compound 5.05, N6-[2-Amino-2-(3-ethynylphenyl)ethyl]-N4-tert-butyl-1-methyl-pyrazolo[3,4-d]pyrimidine-4,6-diamine] | 51.8 | 68.3
Cn1ncc2c(NC(C)(C)C)nc(NCC(N)c3ccccn3)nc21 (stereo not drawn) [Compound 5.06, N6-[2-amino-2-(2-pyridyl)ethyl]-N4-tert-butyl-1-methyl-pyrazolo[3,4-d]pyrimidine-4,6-diamine] | 1100 | 1110
Cc1ccc(CNc2nc(NCC(N)c3cccnc3)nc3c2cnn3C)cc1Cl (stereo not drawn) [Compound 5.07, 6-N-(2-amino-2-pyridin-3-ylethyl)-4-N-[(3-chloro-4-methylphenyl)methyl]-1-methylpyrazolo[3,4-d]pyrimidine-4,6-diamine] | 135 | 882
Cn1ncc2c(NC(C)(C)C)nc(NCC(N)c3cccnc3)nc21 (stereo not drawn) [Compound 5.08, N6-[2-amino-2-(3-pyridyl)ethyl]-N4-tert-butyl-1-methyl-pyrazolo[3,4-d]pyrimidine-4,6-diamine] | 615 | 1170
Cn1ncc2c(Nc3ccc(C(F)(F)F)cc3)nc(NCC(N)c3ccccc3Cl)nc21 (stereo not drawn) [Compound 5.09, 6-N-[2-amino-2-(2-chlorophenyl)ethyl]-1-methyl-4-N-[4-(trifluoromethyl)phenyl]pyrazolo[3,4-d]pyrimidine-4,6-diamine] | 127 | 55.9
Cn1ncc2c(NC(C)(C)C)nc(NCC(N)c3ccccc3Cl)nc21 (stereo not drawn) [Compound 5.10, N6-[2-amino-2-(2-chlorophenyl)ethyl]-N4-tert-butyl-1-methyl-pyrazolo[3,4-d]pyrimidine-4,6-diamine] | 495 | 462
Cn1ncc2c(NC(C)(C)C)nc(NC[C@H](N)c3ccccc3Cl)nc21 [Compound 5.11, N6-[(2R)-2-amino-2-(2-chlorophenyl)ethyl]-N4-tert-butyl-1-methyl-pyrazolo[3,4-d]pyrimidine-4,6-diamine] | 321 | 457
Cc1ccc(CNc2nc(NCC(N)c3ccccc3F)nc3c2cnn3C)cc1Cl (stereo not drawn) [Compound 5.12, 6-N-[2-amino-2-(2-fluorophenyl)ethyl]-4-N-[(3-chloro-4-methylphenyl)methyl]-1-methylpyrazolo[3,4-d]pyrimidine-4,6-diamine] | 345 | 643
Cn1ncc2c(NC(C)(C)C)nc(NCC(N)c3ccccc3F)nc21 (stereo not drawn) [Compound 5.13, N6-[2-amino-2-(2-fluorophenyl)ethyl]-N4-tert-butyl-1-methyl-pyrazolo[3,4-d]pyrimidine-4,6-diamine] | 383 | 525
[2H]C([2H])([2H])n1ncc2c(NC(C)(C)C)nc(NCC(N)c3ccccc3F)nc21 (stereo not drawn) [Compound 5.14, N6-[2-amino-2-(2-fluorophenyl)ethyl]-N4-tert-butyl-1-(trideuteriomethyl)pyrazolo[3,4-d]pyrimidine-4,6-diamine] | 294 | 429
CC(C)Nc1nc(NC[C@H](N)c2cccc(Br)c2)nc2c1cnn2C [Compound 5.15, N6-[(2R)-2-amino-2-(3-bromophenyl)ethyl]-N4-isopropyl-1-methyl-pyrazolo[3,4-d]pyrimidine-4,6-diamine] | 28.4 | 47.1
Cn1ncc2c(NC(C)(C)C(F)(F)F)nc(NC[C@H](N)c3cccc(Br)c3)nc21 [Compound 5.16, N6-[(2R)-2-amino-2-(3-bromophenyl)ethyl]-1-methyl-N4-(2,2,2-trifluoro-1,1-dimethyl-ethyl)pyrazolo[3,4-d]pyrimidine-4,6-diamine] | 41.7 | 38.5

The next lines start with the values.

IC50 (BCDIN3D [1]) [nM] | IC50 (BCDIN3D [2]) [nM] | Structure (SMILES)
470 | 1870 | CNc1nc(NCC(N)c2cccc(Br)c2)nc2c1cnn2C (stereo not drawn) [Compound 5.17, 6-N-[2-amino-2-(3-bromophenyl)ethyl]-4-N,1-dimethylpyrazolo[3,4-d]pyrimidine-4,6-diamine]
47 | 27.8 | Cn1ncc2c(NC(C)(C)C)nc(NCC(N)c3cccc(Br)c3)nc21 (stereo not drawn) [Compound 5.18, N6-[2-amino-2-(3-bromophenyl)ethyl]-N4-tert-butyl-1-methyl-pyrazolo[3,4-d]pyrimidine-4,6-diamine]
375 | 767 | CC(C)Nc1nc(NCC(N)c2ccc(Br)cc2)nc2c1cnn2C (stereo not drawn) [Compound 5.19, 6-N-[2-amino-2-(4-bromophenyl)ethyl]-1-methyl-4-N-propan-2-ylpyrazolo[3,4-d]pyrimidine-4,6-diamine]
609 | 1120 | Cn1ncc2c(NC(C)(C)C)nc(NCC(N)c3ccccc3Br)nc21 (stereo not drawn) [Compound 5.20, N6-[2-amino-2-(2-bromophenyl)ethyl]-N4-tert-butyl-1-methyl-pyrazolo[3,4-d]pyrimidine-4,6-diamine]
3860 | 11100 | CNc1nc(NCC(N)c2ccc(C#N)cc2)nc2c1cnn2C (stereo not drawn) [Compound 5.21, 4-[1-amino-2-[[1-methyl-4-(methylamino)pyrazolo[3,4-d]pyrimidin-6-yl]amino]ethyl]benzonitrile]
42.8 | 129 | Cn1ncc2c(NC(C)(C)C)nc(NCC(N)c3cccc(C#N)c3)nc21 (stereo not drawn) [Compound 5.22, 3-[1-amino-2-[[4-(tert-butylamino)-1-methyl-pyrazolo[3,4-d]pyrimidin-6-yl]amino]ethyl]benzonitrile]
61.7 | 124 | Cn1ncc2c(NC(C)(C)C(F)(F)F)nc(NC[C@H](N)c3cccc(C#N)c3)nc21 [Compound 5.23, 3-[(1R)-1-amino-2-[[1-methyl-4-[(2,2,2-trifluoro-1,1-dimethyl-ethyl)amino]pyrazolo[3,4-d]pyrimidin-6-yl]amino]ethyl]benzonitrile]
1810 | 5580 | Cn1ncc2c(NC3CC(F)(F)C3)nc(NCC(N)c3cccnc3)nc21 (stereo not drawn) [Compound 5.25, N6-[2-amino-2-(3-pyridyl)ethyl]-N4-(3,3-difluorocyclobutyl)-1-methyl-pyrazolo[3,4-d]pyrimidine-4,6-diamine]
3390 | 5570 | Cn1ncc2c(NC(C)(C)C)nc(NCC(N)c3ccncc3)nc21 (stereo not drawn) [Compound 5.26, N6-[2-amino-2-(4-pyridyl)ethyl]-N4-tert-butyl-1-methyl-pyrazolo[3,4-d]pyrimidine-4,6-diamine]
2810 | 10000 | Cn1ncc2c(NC3CC(F)(F)C3)nc(NCC(N)c3ccncc3)nc21 (stereo not drawn) [Compound 5.27, N6-[2-amino-2-(4-pyridyl)ethyl]-N4-(3,3-difluorocyclobutyl)-1-methyl-pyrazolo[3,4-d]pyrimidine-4,6-diamine]
90 | 370 | Cn1ncc2c(NC(C)(C)C)nc(NC[C@H](N)c3ccc(C#N)cc3)nc21 [Compound 5.28, 4-[(1R)-1-amino-2-{[4-(tert-butylamino)-1-methyl-1H-pyrazolo[3,4-d]pyrimidin-6-yl]amino}ethyl]benzonitrile]
2780 | 1690 | CN[C@@H](CNc1nc(NC(C)(C)C)c2cnn(C)c2n1)c1ccccc1 [Compound 5.29, N4-tert-butyl-1-methyl-N6-[(2R)-2-(methylamino)-2-phenylethyl]-1H-pyrazolo[3,4-d]pyrimidine-4,6-diamine]
